Laboratory results from patent publication US20250269091A1, “UTILIZATION OF ELECTROPHORETIC DEPOSITION TO COAT MEDICAL IMPLANTS WITH THERAPEUTIC AGENTS IN A STERILE CLINICAL SETTING” (Rush University Medical Center, priority 2022, published 2025).

Experiments:
S. aureus = details: 4 ml of 1×10^5 CFU/ml S. aureus, 24 hours
Experimental: A gentamicin-loaded chitosan-coated wire was placed in one tube (loaded wire, LW). 0.25 mg gentamicin was added to the second tube (antibiotic control, AC). The third tube contained bacteria only and served as growth control (GC). The tubes were incubated for 24 hours, and the absorbance of the solutions was measured with a spectrophotometer in each tube.

S. aureus Xen36 = assay: Minimal inhibitory concentration by broth dilution method; type: cell-based, Staphylococcus aureus; details: against S. aureus Xen36, broth dilution
Experimental: FIGS. 17-20 show tests of the titanium rod of FIG. 3 against Staphylococcus aureus by agar dilution and liquid culture methods. To determine the antimicrobial activity of the loaded wires, S. aureus (Xen36, derived from ATCC 49525) bacteria were cultured overnight at 37° C. in Luria-Bertani medium. The minimal inhibitory concentration of gentamicin was determined by the broth dilution method. In the agar diffusion test, 100 μl of 1×10^6 colony forming units/ml S. aureus solution was inoculated on agar plates and dried. […] The inhibition zones (IZ) 1708, 1710 around the components were measured following 24 hours incubation at 37° C.
In the agar diffusion assay, an elliptical shaped IZ 1708 formed around the loaded wire 1702 (35 mm shorter and 45 mm longer axis).

[1] = Gentamicin release from titanium nanotubes, fractional volume sampling; type: physicochemical
Experimental: FIG. 13 illustrates a line graph showing the amount of gentamicin 2300 released from a titanium surface per hour 2400 after a two-step EPD process, as described above. […] Fractional volume sampling was carried out for 3 days. FIG. 15 illustrates the gentamicin concentration in the release solution, and FIG. 16 represents the cumulative release of gentamicin. An initial burst release was observed of around 78% in the first 10 minutes, then gentamicin was released at a slower rate up to 3 days.

## gentamicin
S. aureus
  bacterial density (absorbance) compared to growth control: significantly decreased bacterial density
S. aureus Xen36
  MIC: 3.6 µg/mL
[1]; after the initial burst
  duration of slower release of gentamicin: up to 3 days
[1]; entire period tested (3 days)
  drug concentration in release solution relative to MIC: stayed above the determined minimum inhibitory concentration (MIC)
[1]; first 10 minutes, titanium nanotube surface after two-step EPD with gentamicin and chitosan
  initial burst release of gentamicin: around 78%
[1]; release over 3 days, titanium nanotube surface after two-step EPD
  cumulative amount of gentamicin detected: 400 to 550 µg
